Source: patent US7462595B2, “Methods for treating cancer-related fatigue” (priority 2004, dated 2008)

Columns and labels:
[1] = tested on: patients with severe CRF (breast cancer or prostate cancer); experiment: double-blind, placebo-controlled crossover study of intravenous TRH infusions in idiopathic cancer-related fatigue; type: in vivo, human
Method: Patient Selection. Patients with a diagnosis of cancer, in this study, breast cancer; or prostate cancer, are screened for CRF using a brief fatigue inventory (BFI) in an oncology clinic setting. The BFI is a simple 9-item self-administered scale and requires about 5-10 minutes to complete. Patients experiencing a severe level of fatigue (BFI≧7) are identified based on this screening. These patients then undergo additional screening with a comprehensive interview and laboratory assessments (hemoglobin, hematocrit, thyroid stimulating hormone concentration, and electrolytes) to identify and exclude patients with medically reversible or other treatable causes of fatigue (viz. anemia, hypothyroidism, electrolyte abnormalities, significant pain dominating the CRF presentation). […]
The patients selected undergo a comprehensive assessment to investigate different aspects of fatigue. […] Patients are evaluated for two major psychiatric disorders frequently co-occurring with CRF, depressive disorders and anxiety disorders. […]
The study utilizes a double-blind, placebo-controlled crossover design. […], patients are evaluated in the General Clinical Research Unit (GCRC) of the John Dempsey Hospital and receive intravenous infusions of TRH (0.5 mg for the first active drug trial, 1.5 mg for the second active drug trial) or saline in random order following an ABBA crossover design. […]

[2] = tested on: patients with spinocerebellar degeneration (SCD); details: cited from earlier work
[3] = tested on: patients with severe CRF (breast cancer or prostate cancer); experiment: randomized, double-blind, placebo-controlled study of taltirelin in idiopathic cancer-related fatigue; type: in vivo, human; details: 10 mg vs placebo; after 6 weeks of treatment
Method: Patient Selection. Patients with a diagnosis of cancer, in this study, breast cancer, or prostate cancer, are screened for CRF using a brief fatigue inventory (BFI) in an oncology clinic setting. The BFI is a simple 9-item self-administered scale and requires about 5-10 minutes to complete. Patients experiencing a severe level of fatigue (BFI≧7) are identified based on this screening. […]
Both groups undergo a comprehensive assessment to investigate different aspects of fatigue. […] Patients are also evaluated for two major psychiatric disorders frequently co-occurring with CRF, depressive disorders and anxiety disorders. […]
In the intervention phase of the study, patients receive study medication or placebo based on their group assignments. […] Patients are assessed for their overall status using the clinical global impressions severity of illness scale (CGI-S) at randomization, at week 4 and at the end of the intervention phase. They are also assessed for any global improvement using clinical global impressions improvement scale (CGI-I) at week 4 and at the end of intervention phase. […]

## NC(=O)[C@@H]1CCCN1C(=O)[C@H](Cc1cnc[nH]1)NC(=O)[C@@H]1CCC(=O)N1 [TRH, L-pyroglutamyl-L-histidyl-L-prolineamide]
[1]; TRH 0.5 mg or 1.5 mg infusion vs placebo (saline), each comparison point during 4 week treatment intervention phase
  improving cancer related fatigue, change from baseline in mean fatigue scores assessed using the BFI and MFI: superior to placebo
[1]; TRH 0.5 mg or 1.5 mg vs placebo, of treatment
  improving quality of life, change from baseline in mean quality of life scores assessed using SF-36: superior to placebo

## CN1C(=O)C[C@@H](C(=O)N[C@@H](Cc2c[nH]cn2)C(=O)N2CCC[C@H]2C(N)=O)NC1=O [taltirelin]
[2]; Phase III clinical trials and post-marketing surveillance in Japan
  safety record and side effect profile: excellent safety record
[2]; SCD patients
  efficacy in the treatment of spinocerebellar degeneration (SCD): some efficacy

## taltirelin
[3]
  improving cancer related fatigue, change from baseline in mean fatigue scores assessed using BFI and MFI: superior to placebo
  improving quality of life, change from baseline in mean quality of life scores assessed using SF-36: superior to placebo
